From BigSolDB 2.1

SMILES: O=C(Nc1ccc(F)cc1F)c1cccnc1Oc1cccc(C(F)(F)F)c1
- solubility (mole fraction) (in DMF, 278.15 K): 0.000523
- solubility (mole fraction) (in DMF, 283.15 K): 0.000679
- solubility (mole fraction) (in DMF, 288.15 K): 0.000847
- solubility (mole fraction) (in DMF, 293.15 K): 0.00104
- solubility (mole fraction) (in DMF, 298.15 K): 0.00127
- solubility (mole fraction) (in DMF, 303.15 K): 0.00153
- solubility (mole fraction) (in DMF, 308.15 K): 0.00182
- solubility (mole fraction) (in DMF, 313.15 K): 0.00213
- solubility (mole fraction) (in DMF, 318.15 K): 0.00255
- solubility (mole fraction) (in DMF, 323.15 K): 0.00298
- solubility (mole fraction) (in ethanol, 278.15 K): 0.000244
- solubility (mole fraction) (in ethanol, 283.15 K): 0.000319
- solubility (mole fraction) (in ethanol, 288.15 K): 0.000425
- solubility (mole fraction) (in ethanol, 293.15 K): 0.000537
- solubility (mole fraction) (in ethanol, 298.15 K): 0.000683
- solubility (mole fraction) (in ethanol, 303.15 K): 0.000901
- solubility (mole fraction) (in ethanol, 308.15 K): 0.00111
- solubility (mole fraction) (in ethanol, 313.15 K): 0.00142
- solubility (mole fraction) (in ethanol, 318.15 K): 0.00176
- solubility (mole fraction) (in ethanol, 323.15 K): 0.00216
- solubility (mole fraction) (in ethylene glycol, 278.15 K): 1.42e-05
- solubility (mole fraction) (in ethylene glycol, 283.15 K): 1.76e-05
- solubility (mole fraction) (in ethylene glycol, 288.15 K): 2.25e-05
- solubility (mole fraction) (in ethylene glycol, 293.15 K): 2.71e-05
- solubility (mole fraction) (in ethylene glycol, 298.15 K): 3.28e-05
- solubility (mole fraction) (in ethylene glycol, 303.15 K): 3.89e-05
- solubility (mole fraction) (in ethylene glycol, 308.15 K): 4.62e-05
- solubility (mole fraction) (in ethylene glycol, 313.15 K): 5.41e-05
- solubility (mole fraction) (in ethylene glycol, 318.15 K): 6.34e-05
- solubility (mole fraction) (in ethylene glycol, 323.15 K): 7.49e-05
- solubility (mole fraction) (in propylene glycol, 278.15 K): 4.63e-05
- solubility (mole fraction) (in propylene glycol, 283.15 K): 5.76e-05
- solubility (mole fraction) (in propylene glycol, 288.15 K): 7.29e-05
- solubility (mole fraction) (in propylene glycol, 293.15 K): 9.02e-05
- solubility (mole fraction) (in propylene glycol, 298.15 K): 0.000108
- solubility (mole fraction) (in propylene glycol, 303.15 K): 0.000129
- solubility (mole fraction) (in propylene glycol, 308.15 K): 0.000152
- solubility (mole fraction) (in propylene glycol, 313.15 K): 0.00018
- solubility (mole fraction) (in propylene glycol, 318.15 K): 0.000209
- solubility (mole fraction) (in propylene glycol, 323.15 K): 0.000245
- solubility (mole fraction) (in water, 278.15 K): 1.45e-07
- solubility (mole fraction) (in water, 283.15 K): 2.02e-07
- solubility (mole fraction) (in water, 288.15 K): 2.68e-07
- solubility (mole fraction) (in water, 293.15 K): 3.33e-07
- solubility (mole fraction) (in water, 298.15 K): 4.08e-07
- solubility (mole fraction) (in water, 303.15 K): 4.98e-07
- solubility (mole fraction) (in water, 308.15 K): 6.05e-07
- solubility (mole fraction) (in water, 313.15 K): 7.25e-07
- solubility (mole fraction) (in water, 318.15 K): 8.72e-07
- solubility (mole fraction) (in water, 323.15 K): 1.04e-06
